In the Deep4Chem optical property database:

Test: solvent given as SMILES

Cc1cc(C)c(C2=C3C=C(/C=C/C(=O)OCc4ccccc4)C=[N+]3[B-](F)(F)n3cc(/C=C/C(=O)OCc4ccccc4)cc32)c(C)c1
emission maximum (in ClCCl): 604 nm

CC1(C)c2ccccc2N(c2cccc(S(=O)(=O)c3cccc(N4c5ccccc5C(C)(C)c5ccccc54)c3)c2)c2ccccc21
emission maximum (in C1CCOC1): 422 nm
emission maximum (in CCCCC(CC)n1c2ccc(-n3c4ccccc4c4ccccc43)cc2c2cc(-n3c4ccccc4c4ccccc43)ccc21): 509.28 nm
emission maximum (in Cc1ccccc1): 489 nm
emission maximum (in ClC(Cl)Cl): 515 nm
emission maximum (in c1cc(-n2c3ccccc3c3ccccc32)cc(-n2c3ccccc3c3ccccc32)c1): 505.12 nm

O=C1c2ccccc2C2=Nc3cccc4cccc(c34)N12
emission maximum (in ClCCl): 596 nm

CN(C)c1ccc(/C=C/c2cc(/C=C/c3ccc(N(C)C)cc3)nc(/C=C/c3ccccc3)n2)cc1
emission maximum (in C1CCOC1): 526 nm
emission maximum (in CC#N): 587 nm
emission maximum (in CC(C)=O): 563 nm
emission maximum (in CCCCCCC): 453 nm
emission maximum (in CS(C)=O): 601 nm
emission maximum (in Cc1ccccc1): 483 nm
emission maximum (in ClCCl): 537 nm

N#Cc1cc(C#Cc2c(F)c(F)nc(F)c2F)c(C#Cc2c(F)c(F)nc(F)c2F)cc1C#N
emission maximum (in CC#N): 370 nm

COc1ccc(-c2ccc3c(c2)C=Cc2cc(-c4ccc(OC)cc4)ccc2[Si]3(C)C)cc1
emission maximum (in ClCCl): 391 nm

O=c1c2cc(F)c(O)cc2sc2cc(O)c(F)cc12
emission maximum (in CCO): 465 nm

CNc1cc2nc3cc(Cl)c(Cl)cc3nc2cc1NC
emission maximum (in CCO): 541 nm

CCCCOc1ccc(-c2oc3c(-c4ccc(OCCCC)cc4)c4n(c3c2-c2ccc(OCCCC)cc2)[B-](F)(F)[N+]2=Cc3c(-c5ccc(OCCCC)cc5)c5oc(-c6ccc(OCCCC)cc6)c(-c6ccc(OCCCC)cc6)c5n3[B-](F)(F)[N+]2=C4)cc1
emission maximum (in C1CCOC1): 663 nm
emission maximum (in CN(C)C=O): 672 nm
emission maximum (in CS(C)=O): 676 nm
emission maximum (in Cc1ccccc1): 668 nm
emission maximum (in ClC(Cl)Cl): 666 nm
emission maximum (in ClCCl): 667 nm

CC1=CC(C)=[N+]2C1=C(c1ccc(I)cc1)c1c(C)cc(C)n1[B-]21Oc2ccc3ccccc3c2-c2c(ccc3ccccc23)O1
emission maximum (in ClC(Cl)Cl): 516.4 nm

O=C1NC(=O)/C(=C\c2ccccc2O)S1
emission maximum (in C1CCCCC1): 397 nm
emission maximum (in C1COCCO1): 418 nm
emission maximum (in CC#N): 428 nm
emission maximum (in CN(C)C=O): 424 nm
emission maximum (in CO): 428 nm
emission maximum (in O): 480 nm
emission maximum (in OCC(O)CO): 451 nm
emission maximum (in OCCO): 440 nm

CC(C)C[Si](C#Cc1c2c(=O)c3ccccc3c2c(C#C[Si](CC(C)C)(CC(C)C)CC(C)C)c2c(=O)c3ccccc3c12)(CC(C)C)CC(C)C
emission maximum (in ClC(Cl)Cl): 567 nm

CC1(C)c2ccccc2N(c2ccc3c(c2)C2(c4cc(N5c6ccccc6C(C)(C)c6ccccc65)ccc4-3)c3ccccc3S(=O)(=O)c3ccccc32)c2ccccc21
emission maximum (in Cc1ccccc1): 437 nm

CCCCCCCCCCCCOc1cc2c3c(ccc4c5c(NC6CCCCC6)cc6c7c(ccc(c1c34)c75)C(=O)N(C1CCCCC1)C6=O)C(=O)N(C1CCCCC1)C2=O
emission maximum (in ClC(Cl)Cl): 722 nm

CNCCCC1c2ccccc2C=Cc2ccccc21
emission maximum (in CC#N): 358 nm
emission maximum (in CO): 358 nm
emission maximum (in O): 360 nm

CCCCCCCCN1c2ccc(C#Cc3cc(C(F)(F)F)cc(C(F)(F)F)c3)cc2Sc2cc(C=O)ccc21
emission maximum (in C1CCOC1): 514 nm
emission maximum (in CC#N): 532 nm
emission maximum (in CCCCCC): 491 nm
emission maximum (in CO): 517 nm
emission maximum (in CS(C)=O): 540 nm
emission maximum (in Cc1ccccc1): 508 nm
emission maximum (in ClC(Cl)Cl): 529 nm

O=c1[nH]nc(-c2ccc(/C=C/c3ccc(-c4n[nH]c(=O)o4)cc3)cc2)o1
emission maximum (in CN(C)C=O): 408 nm

CC(C)[Si](C#Cc1c2nc3ccccc3nc2c(C#C[Si](C(C)C)(C(C)C)C(C)C)c2nc3c(ccc4cc5ccccc5cc43)nc12)(C(C)C)C(C)C
emission maximum (in CCCCCC): 648 nm

Cc1ccc(C2=C3C=CC(Sc4ccccc4)=[N+]3[B-](F)(F)n3c(Sc4ccccc4)ccc32)cc1
emission maximum (in C1CCOC1): 599 nm

c1ccc(-c2c3c(cc4c2-c2ccccc2C4)-c2ccccc2C3)cc1
emission maximum (in C1CCCCC1): 364 nm

Cc1c(C)n2c(COC(=O)c3ccccc3I)c(C)c(=O)n2c1=O
emission maximum (in CCO): 461 nm

COc1cccc(-n2c(-c3ccccc3)nc(C)c2C)c1
emission maximum (in C1COCCO1): 366 nm
emission maximum (in CC#N): 373 nm
emission maximum (in CCCCCC): 365 nm
emission maximum (in CCCCO): 370 nm
emission maximum (in CCO): 369 nm
emission maximum (in CCOC(C)=O): 370 nm
emission maximum (in CO): 368 nm
emission maximum (in ClC(Cl)Cl): 366 nm
emission maximum (in ClCCl): 364 nm
emission maximum (in c1ccccc1): 372 nm

COc1ccc(-c2nc3c(c4c2-c2ccccc2CC4)-c2ccccc2CC3)cc1
emission maximum (in C1CCOC1): 420 nm
emission maximum (in CC#N): 416 nm
emission maximum (in CCCCCC): 408 nm
emission maximum (in CCOC(C)=O): 425 nm
emission maximum (in CO): 428 nm
emission maximum (in CS(C)=O): 415 nm
emission maximum (in Cc1ccccc1): 419 nm
emission maximum (in ClCCl): 424 nm

Cc1cccc2ccccc12
emission maximum (in C1CCCCC1): 339.9 nm
